One experiment relates to recombinant NL4-3 virus (Renilla luciferase in nef, Gag P373S). Briefly: HIV cell culture assay (luciferase reporter, MT-2 cells). It counts as cell-based, HIV-1. To be noted: MT-2 cells infected for 4-5 days with NLRluc recombinants; luciferase activity; serial dilutions of inhibitor. The method, then:
MT-2 cells and 293T cells were obtained from the NIH AIDS Research and Reference Reagent Program. MT-2 cells were propagated in RPMI 1640 media supplemented with 10% heat inactivated fetal bovine serum, […]. The 293T cells were propagated in DMEM media supplemented with 10% heat inactivated fetal bovine serum (FBS), 100 units/ml penicillin G and 100 µg/ml streptomycin. The proviral DNA clone of NL4-3 was obtained from the NIH AIDS Research and Reference Reagent Program. A recombinant NL4-3 virus, in which a section of the nef gene from NL4-3 was replaced with the Renilla luciferase gene, was used as a reference virus. In addition, residue Gag P373 was converted to P373S. Briefly, the recombinant virus was prepared by transfection of the altered proviral clone of NL4-3. Transfections were performed in 293T cells using LipofectAMINE PLUS from Invitrogen (Carlsbad, Calif.), according to manufacturer's instruction. The virus was titered in MT-2 cells using luciferase enzyme activity as a marker. Luciferase was quantitated using the Dual Luciferase kit from Promega (Madison, Wis.), with modifications to the manufacturer's protocol. The diluted Passive Lysis solution was pre-mixed with the re-suspended Luciferase Assay Reagent and the re-suspended Stop & Glo Substrate (2:1:1 ratio). Fifty (50) μL of the mixture was added to each aspirated well on assay plates and luciferase activity was measured immediately on a Wallac TriLux (Perkin-Elmer). Antiviral activities of inhibitors toward the recombinant virus were quantified by measuring luciferase activity in cells infected for 4-5 days with NLRluc recombinants in the presence serial dilutions of the inhibitor.
For the compound `CC(O)[C@@H]1CC[C@]2(NCCN3CCS(=O)(=O)CC3)CC[C@]3(C)[C@H](CC[C@@H]4[C@@]5(C)CC=C(c6ccc(C(=O)O)cc6)C(C)(C)[C@@H]5CC[C@]43C)[C@@H]12` (single isomer, unassigned) [Example B12], the EC50 was 3.95 nM.
Turning to `CC(CO)[C@@H]1CC[C@]2(NCCN3CCS(=O)(=O)CC3)CC[C@]3(C)[C@H](CC[C@@H]4[C@@]5(C)CC=C(c6ccc(C(=O)O)c(F)c6)C(C)(C)[C@@H]5CC[C@]43C)[C@@H]12` (single isomer, unassigned) [Example A5], the EC50 amounted to 6.89 nM.

Staying with this experiment, now noted: Renilla, NL43, MT-2 cells infected for 4-5 days with NLRluc recombinants; luciferase activity; serial dilutions of inhibitor.
As to `CC1(C)C(c2ccc(C(=O)O)cc2)=CC[C@]2(C)[C@H]3CC[C@@H]4[C@H]5[C@H](C(=O)CO)CC[C@]5(NCCN5CCS(=O)(=O)CC5)CC[C@@]4(C)[C@]3(C)CC[C@@H]12` [Example B25, 4-((1R,3aS,5aR,5bR,7aR,11aS,11bR,13aR,13bS)-3a-((2-(1,1-dioxidothiomorpholino)ethyl)amino)-1-(2-hydroxyacetyl)-5a,5b,8,8,11a-pentamethyl-2,3,3a,4,5,5a,5b,6,7,7a,8,11,11a,11b,12,13,13a,13b-octadecahydro-1H-cyclopenta[a]chrysen-9-yl)benzoic acid], the EC50 amounted to 110 nM.
Same read-out and setting: under `CC([C@@H]1CC[C@]2(NCCN3CCS(=O)(=O)CC3)CC[C@]3(C)[C@H](CC[C@@H]4[C@@]5(C)CC=C(c6ccc(C(=O)O)cc6)C(C)(C)[C@@H]5CC[C@]43C)[C@@H]12)N1CCOCC1` (stereo partly drawn) [Example B20, 4-((1R,3aS,5aR,5bR,7aR,11aS,11bR,13aR,13bS)-3a-((2-(1,1-dioxidothiomorpholino)ethyl)amino)-5a,5b,8,8,11a-pentamethyl-1-(1-morpholinoethyl)-2,3,3a,4,5,5a,5b,6,7,7a,8,11,11a,11b,12,13,13a,13b-octadecahydro-1H-cyclopenta[a]chrysen-9-yl)benzoic acid] stands 2.05 nM; under `CC(=O)[C@@H]1CC[C@]2(N)CC[C@]3(C)[C@H](CC[C@@H]4[C@@]5(C)CC=C(c6ccc(C(=O)O)cc6)C(C)(C)[C@@H]5CC[C@]43C)[C@@H]12` [Example B46, 4-((1R,3aS,5aR,5bR,7aR,11aS,11bR,13aR,13bS)-1-acetyl-3a-amino-5a,5b,8,8,11a-pentamethyl-2,3,3a,4,5,5a,5b,6,7,7a,8,11,11a,11b,12,13,13a,13b-octadecahydro-1H-cyclopenta[a]chrysen-9-yl)benzoic acid], 290 nM; under `CC(C)(O)[C@@H]1CC[C@]2(NCCN3CCS(=O)(=O)CC3)CC[C@]3(C)[C@H](CC[C@@H]4[C@@]5(C)CC=C(c6ccc(C(=O)O)cc6)C(C)(C)[C@@H]5CC[C@]43C)[C@@H]12` [Example B3, 4-((1R,3aS,5aR,5bR,7aR,11aS,11bR,13aR,13bS)-3a-((2-(1,1-dioxidothiomorpholino)ethyl)amino)-1-(2-hydroxypropan-2-yl)-5a,5b,8,8,11a-pentamethyl-2,3,3a,4,5,5a,5b,6,7,7a,8,11,11a,11b,12,13,13a,13b-octadecahydro-1H-cyclopenta[a]chrysen-9-yl)benzoic acid], 1.3 nM.
In the case of `CC(CN1CCOCC1)[C@@H]1CC[C@]2(NCCN3CCS(=O)(=O)CC3)CC[C@]3(C)[C@H](CC[C@@H]4[C@@]5(C)CC=C(c6ccc(C(=O)O)cc6)C(C)(C)[C@@H]5CC[C@]43C)[C@@H]12` (single isomer, unassigned) [Example B16], the EC50 was 0.827 nM.
As for `C=C(CO)[C@@H]1CC[C@]2(NC(=O)OC(C)(C)C)CC[C@]3(C)[C@H](CC[C@@H]4[C@@]5(C)CC=C(c6ccc(C(=O)O)c(F)c6)C(C)(C)[C@@H]5CC[C@]43C)[C@@H]12` [Example A1, 4-((1R,3aS,5aR,5bR,7aR,11aS,11bR,13aR,13bS)-3a-((tert-butoxycarbonyl)amino)-1-(3-hydroxyprop-1-en-2-yl)-5a,5b,8,8,11a-pentamethyl-2,3,3a,4,5,5a,5b,6,7,7a,8,11,11a,11b,12,13,13a,13b-octadecahydro-1H-cyclopenta[a]chrysen-9-yl)-2-fluorobenzoic acid], the EC50 was found to be 20 nM.
Turning to `CC(=O)N[C@@H]1CC[C@]2(NCCN3CCS(=O)(=O)CC3)CC[C@]3(C)[C@H](CC[C@@H]4[C@@]5(C)CC=C(c6ccc(C(=O)O)cc6)C(C)(C)[C@@H]5CC[C@]43C)[C@@H]12` [Example B36, 4-((1R,3aR,5aR,5bR,7aR,11aS,11bR,13aR,13bS)-1-acetamido-3a-((2-(1,1-dioxidothiomorpholino)ethyl)amino)-5a,5b,8,8,11a-pentamethyl-2,3,3a,4,5,5a,5b,6,7,7a,8,11,11a,11b,12,13,13a,13b-octadecahydro-1H-cyclopenta[a]chrysen-9-yl)benzoic acid], the EC50 was found to be 6.29 nM.
On the same count and under the same terms, under `CC1(C)C(c2ccc(C(=O)O)cc2)=CC[C@]2(C)[C@H]3CC[C@@H]4[C@H]5[C@H](NC(=O)c6ccc(C7(C(F)(F)F)N=N7)cc6)CC[C@]5(NCCN5CCS(=O)(=O)CC5)CC[C@@]4(C)[C@]3(C)CC[C@@H]12` [Example B45, 4-((1R,3aR,5aR,5bR,7aR,11aS,11bR,13aR,13bS)-3a-((2-(1,1-dioxidothiomorpholino)ethyl)amino)-5a,5b,8,8,11a-pentamethyl-1-(4-(3-(trifluoromethyl)-3H-diazirin-3-yl)benzamido)-2,3,3a,4,5,5a,5b,6,7,7a,8,11,11a,11b,12,13,13a,13b-octadecahydro-1H-cyclopenta[a]chrysen-9-yl)benzoic acid] stands 50 nM.
As to `CC1([C@@H]2CC[C@]3(NC(=O)CN4CCS(=O)(=O)CC4)CC[C@]4(C)[C@H](CC[C@@H]5[C@@]6(C)CC=C(c7ccc(C(=O)O)cc7)C(C)(C)[C@@H]6CC[C@]54C)[C@@H]23)CC1` [Example B51, 4-((1R,3aS,5aR,5bR,7aR,11aS,11bR,13aR,13bR)-3a-(2-(1,1-dioxidothiomorpholino)acetamido)-5a,5b,8,8,11a-pentamethyl-1-(1-methylcyclopropyl)-2,3,3a,4,5,5a,5b,6,7,7a,8,11,11a,11b,12,13,13a,13b-octadecahydro-1H-cyclopenta[a]chrysen-9-yl)benzoic acid], the EC50 was determined as 1.1 nM.
Same read-out and setting: the value for `C=C(COCCN1CCOCC1)[C@@H]1CC[C@]2(C(=O)NCCC(=O)O)CC[C@]3(C)[C@H](CC[C@@H]4[C@@]5(C)CC=C(c6ccc(C(=O)O)cc6)C(C)(C)[C@@H]5CC[C@]43C)[C@@H]12` [Example 12, 4-((1R,3aS,5aR,5bR,7aR,11aS,11bR,13aR,13bS)-3a-(2-carboxyethylcarbamoyl)-5a,5b,8,8,11a-pentamethyl-1-(3-(2-morpholinoethoxy)prop-1-en-2-yl)-2,3,3a,4,5,5a,5b,6,7,7a,8,11,11a,11b,12,13,13a,13b-octadecahydro-1H-cyclopenta[a]chrysen-9-yl)benzoic acid] was 140 nM; that for `CC1([C@@H]2CC[C@]3(NCCN4CCS(=O)(=O)CC4)CC[C@]4(C)[C@H](CC[C@@H]5[C@@]6(C)CC=C(c7ccc(C(=O)O)c(F)c7)C(C)(C)[C@@H]6CC[C@]54C)[C@@H]23)CO1` (stereo partly drawn) [Example A3, 4-((1R,3aS,5aR,5bR,7aR,11aS,11bR,13aR,13bS)-3a-((2-(1,1-dioxidothiomorpholino)ethyl)amino)-5a,5b,8,8,11a-pentamethyl-1-(2-methyloxiran-2-yl)-2,3,3a,4,5,5a,5b,6,7,7a,8,11,11a,11b,12,13,13a,13b-octadecahydro-1H-cyclopenta[a]chrysen-9-yl)-2-fluorobenzoic acid] was 10 nM.
As for `C=C(COCCN1CCOCC1)[C@@H]1CC[C@]2(C(=O)NCCCN3CCCC3=O)CC[C@]3(C)[C@H](CC[C@@H]4[C@@]5(C)CC=C(c6ccc(C(=O)O)cc6)C(C)(C)[C@@H]5CC[C@]43C)[C@@H]12` [Example 15, 4-((1R,3aS,5aR,5bR,7aR,11aS,11bR,13aR,13bS)-5a,5b,8,8,11a-pentamethyl-1-(3-(2-morpholinoethoxy)prop-1-en-2-yl)-3a-(3-(2-oxopyrrolidin-1-yl)propylcarbamoyl)-2,3,3a,4,5,5a,5b,6,7,7a,8,11,11a,11b,12,13,13a,13b-octadecahydro-1H-cyclopenta[a]chrysen-9-yl)benzoic acid], the EC50 was 1.83 nM.
As to `CC(C)(O)[C@@H]1CC[C@]2(NCCN3CC4CC3CO4)CC[C@]3(C)[C@H](CC[C@@H]4[C@@]5(C)CC=C(C6=CCC(C(=O)O)CC6)C(C)(C)[C@@H]5CC[C@]43C)[C@@H]12` (stereo partly drawn) [Example 23, 4-((1R,3aS,5aR,5bR,7aR,11aS,11bR,13aR,13bS)-3a-((2-(2-oxa-5-azabicyclo[2.2.1]heptan-5-yl)ethyl)amino)-1-(2-hydroxypropan-2-yl)-5a,5b,8,8,11a-pentamethyl-2,3,3a,4,5,5a,5b,6,7,7a,8,11,11a,11b,12,13,13a,13b-octadecahydro-1H-cyclopenta[a]chrysen-9-yl)cyclohex-3-enecarboxylic acid], the EC50 turned out to be 0.779 nM.

Source of the values: patent US20140221361A1, “C-19 MODIFIED TRITERPENOIDS WITH HIV MATURATION INHIBITORY ACTIVITY” (priority 2013, published 2014).
